Experimental data as given in PubChem BioAssay AID2060329 (Molecular Pharmacology Branch, DTP, NCI, 2025).
Values joined by “and” are separate entries in the source; they are usually repeats but may differ in a detail not shown here. Equal values may be shown once.

Tested on: MCF7 multi-cell spheroids with HUVEC/MSC, viability
Test: Anticancer human tumor MCF7 cell line growth inhibition [IpAb];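 note: spheroids exposed to agents for seven days before readout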
Settings: for viability, T/C: stronger effect = lower value
In short: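 Spheroids of 60% malignant cells, 25% HUVEC and 15% MSC were exposed to targeted agents combined with ipatasertib or abemaciclib. Doses started at or near clinical Cmax (10 microM when unknown) and fell in half-log steps.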

[1] = curve of first compound, second compound 0.01 µM
[2] = curve of first compound, second compound 0.0316 µM
[3] = curve of first compound, second compound 0.1 µM
[4] = curve of first compound, second compound 0.316 µM
[5] = curve of first compound, second compound 1 µM
[6] = second compound 0.01 µM, first compound 0.0316 µM
[7] = second compound 0.01 µM, first compound 0.1 µM
[8] = second compound 0.01 µM, first compound 0.316 µM
[9] = second compound 0.01 µM, first compound 1 µM
[10] = second compound 0.01 µM, first compound 3.16 µM
[11] = second compound 0.01 µM, first compound 10 µM
[12] = second compound 0.0316 µM, first compound 0.0316 µM
[13] = second compound 0.0316 µM, first compound 0.1 µM
[14] = second compound 0.0316 µM, first compound 0.316 µM
[15] = second compound 0.0316 µM, first compound 1 µM
[16] = second compound 0.0316 µM, first compound 3.16 µM
[17] = second compound 0.0316 µM, first compound 10 µM
[18] = second compound 0.1 µM, first compound 0.0316 µM
[19] = second compound 0.1 µM, first compound 0.1 µM
[20] = second compound 0.1 µM, first compound 0.316 µM
[21] = second compound 0.1 µM, first compound 1 µM
[22] = second compound 0.1 µM, first compound 3.16 µM
[23] = second compound 0.1 µM, first compound 10 µM
[24] = second compound 0.316 µM, first compound 0.0316 µM
[25] = second compound 0.316 µM, first compound 0.1 µM
[26] = second compound 0.316 µM, first compound 0.316 µM
[27] = second compound 0.316 µM, first compound 1 µM
[28] = second compound 0.316 µM, first compound 3.16 µM
[29] = second compound 0.316 µM, first compound 10 µM
[30] = second compound 1 µM, first compound 0.0316 µM
[31] = second compound 1 µM, first compound 0.1 µM
[32] = second compound 1 µM, first compound 0.316 µM
[33] = second compound 1 µM, first compound 1 µM
[34] = second compound 1 µM, first compound 3.16 µM
[35] = second compound 1 µM, first compound 10 µM

SMILES | IC50 [3] [nM] | IC50 [4] [nM] | IC50 [5] [nM] | viability, T/C [18] [%] | viability, T/C [19] [%] | viability, T/C [20] [%] | viability, T/C [21] [%] | viability, T/C [22] [%] | viability, T/C [23] [%] | viability, T/C [24] [%] | viability, T/C [25] [%] | viability, T/C [26] [%] | viability, T/C [27] [%] | viability, T/C [28] [%] | viability, T/C [29] [%] | viability, T/C [30] [%] | viability, T/C [31] [%] | viability, T/C [32] [%] | viability, T/C [33] [%] | viability, T/C [34] [%] | further results
C=CCn1c(=O)c2cnc(Nc3ccc(N4CCN(C)CC4)cc3)nc2n1-c1cccc(C(C)(C)O)n1 + CCN1CCN(Cc2ccc(Nc3ncc(F)c(-c4cc(F)c5nc(C)n(C(C)C)c5c4)n3)nc2)CC1 | 741 | 965 | 850 | 113 | 83.5 | 71 | 42.6 | 29 | 36.7 | 109 | 109 | 88 | 49 | 37.9 | 36.8 | 88 | 94 | 87.1 | 43.9 | 41.6 | IC50 [1]: 485 nM; IC50 [2]: 561 nM; viability, T/C [6]: 94.5%; viability, T/C [7]: 90.6%; viability, T/C [8]: 60.1%; viability, T/C [9]: 32.8%; viability, T/C [10]: 25.6%; viability, T/C [11]: 25.6%; viability, T/C [12]: 91.4%; viability, T/C [13]: 87.7%; viability, T/C [14]: 63.4%; viability, T/C [15]: 36.3%; viability, T/C [16]: 25.7%; viability, T/C [17]: 23.7%; viability, T/C [35]: 42.1%
C=CC(=O)N1CCN(c2nc(=O)n(-c3c(C)ccnc3C(C)C)c3nc(-c4c(O)cccc4F)c(F)cc23)C(C)C1 (configuration not stated) + CC(C)NCC(C(=O)N1CCN(c2ncnc3c2C(C)CC3O)CC1)c1ccc(Cl)cc1 | 8300 | 6940 | 2710 | 82.4 | 99.8 | 100 | 90.8 | 78.3 | 44.5 | 79.5 | 87.3 | 77.1 | 73.3 | 68.4 | 41.6 | 74.5 | 73.3 | 65.4 | 65.8 | 46.6 | IC50 (curve of first compound, second compound 3.16 µM): 1060 nM; IC50 (curve of first compound, second compound 10 µM): < 31.6 nM; viability, T/C [35]: 32.8%; viability, T/C (second compound 3.16 µM, first compound 0.0316 µM): 58.6%; viability, T/C (second compound 3.16 µM, first compound 0.1 µM): 53.4%; viability, T/C (second compound 3.16 µM, first compound 0.316 µM): 56.6%; viability, T/C (second compound 3.16 µM, first compound 1 µM): 50.2%; viability, T/C (second compound 3.16 µM, first compound 3.16 µM): 38.7%; viability, T/C (second compound 3.16 µM, first compound 10 µM): 22.6%; viability, T/C (second compound 10 µM, first compound 0.0316 µM): 47.7%; viability, T/C (second compound 10 µM, first compound 0.1 µM): 41.3%; viability, T/C (second compound 10 µM, first compound 0.316 µM): 44%; viability, T/C (second compound 10 µM, first compound 1 µM): 36.3%; viability, T/C (second compound 10 µM, first compound 3.16 µM): 40.9%; viability, T/C (second compound 10 µM, first compound 10 µM): 22.6%
CCCS(=O)(=O)Nc1ccc(F)c(C(=O)c2c[nH]c3ncc(-c4ccc(Cl)cc4)cc23)c1F + CCN1CCN(Cc2ccc(Nc3ncc(F)c(-c4cc(F)c5nc(C)n(C(C)C)c5c4)n3)nc2)CC1 | > 10000 | > 10000 | 8100 | 101 | 96.8 | 100 | 99.4 | 88.4 | 77.3 | 98.3 | 103 | 94 | 101 | 93.1 | 76.5 | 101 | 94.7 | 92.5 | 87.8 | 72.9 | IC50 [1]: > 10000 nM; IC50 [2]: > 10000 nM; viability, T/C [6]: 97.8%; viability, T/C [7]: 106%; viability, T/C [8]: 97.5%; viability, T/C [9]: 90.1%; viability, T/C [10]: 93.4%; viability, T/C [11]: 84%; viability, T/C [12]: 89.6%; viability, T/C [13]: 96.7%; viability, T/C [14]: 91.7%; viability, T/C [15]: 91.9%; viability, T/C [16]: 85.3%; viability, T/C [17]: 70.1%; viability, T/C [35]: 44.5%
CC(=O)c1c(C)c2cnc(Nc3ccc(N4CCNCC4)cn3)nc2n(C2CCCC2)c1=O | – | – | – | – | – | – | – | – | – | – | – | – | – | – | – | – | – | – | – | – | viability, T/C (compound 0.000949 µM): 119% and 97.4%; viability, T/C (compound 0.003 µM): 101% and 97.1%; viability, T/C (compound 0.00949 µM): 95.5% and 95.7%; viability, T/C (compound 0.03 µM): 96.1% and 115%; viability, T/C (compound 0.0949 µM): 109% and 95.9%; viability, T/C (compound 0.3 µM): 89.2% and 104%; IC50 (curve of compound): > 300 nM
